The test deals with PC, PG and PE : PG mixed nanodiscs. Put plainly: Phospholipid nanodisc 1H NMR CPMG coordination assay, comparison across the three nanodiscs. The format is binding. As to conditions: SSA 0.10 mM, in words. An excerpt:
Finally, to establish how any single SSA structural variation affects the coordination of an individual salt component to the surface of a phospholipid membrane, the binding of the anionic and cationic components of SSAs 5–12 with nanodiscs comprised of PC, PG or the PE : PG mix (Table 2) was studied. Nanodiscs were synthesised from synthetic vesicles of the relevant phospholipid composition. For full synthetic procedures and nanodisc characterisation please see ESI (Section 13). ^†[34,35]
Styrene-maleic acid (SMA) nanodiscs are small biomimetic scaffolds with a hydrodynamic diameter ≈ 10 nm. […]
Fluorescence polarisation: Lipid films were resuspended in Buffer (150 mM KCl, 10 mM HEPES, pH 7.4, 2 mM EGTA) and subjected to 9 freeze-thaw cycles in liquid nitrogen and extruded 20 times through a 200 nm polycarbonate membrane. […]
Nanodisc preparation: Lipid films were resuspended in Buffer (20 mM NaCl, 20 mM NaH 2PO4, pH 7.4) and sonicated for 1 hour, at a 5:1 ratio, SMA was added and incubated at 37 °C for 1 hour. Dialysed overnight in 5 L of the same buffer in 10 KDa cut-off dialysis tubing, concentrated, and underwent gel filtration size exclusion chromatography on a Superdex 200 10/300 GL column (GE Healthcare) in the same buffer, whilst monitoring absorbance at 260 nm. Nanodisc quantification carried out via monitoring of absorbance at 260 nm using a calibration curve.2 […]

Two molecules from PMC9400670, “Establishing the selective phospholipid membrane coordination, permeation and lysis properties for a series of ‘druggable’ supramolecular self-associating antimicrobial amphiphiles” (Chemical Science, 2022) can be followed below.

`Cc1ccc2nc(NC(=O)NCS(=O)(=O)O)sc2c1` [SSA 7]: the “interaction of the anionic component of SSA with phospholipid nanodiscs” value was “not to interact with any great significance to any of the phospholipid nanodiscs tested”. Consider `Cc1ccc2nc(-c3ccc(NC(=S)NCS(=O)(=O)O)cc3)sc2c1` [SSA 12], for which the “interaction of the anionic component of SSA with phospholipid nanodiscs” value was “greatest binding affinity for all three nanodiscs of the SSAs tested”.
